# Laboratory results reported in patent publication US12122821B2, “Regulation of glucose metabolism using anti-CGRP antibodies” (H. LUNDBECK A/S, priority 2013, dated 2024).
# “Also recorded” adds a separate entry of the source.
# Tests used:
# [1] = test system: Normal rats; assay: Blood glucose, plasma insulin and HOMA-IR before clamp in normal rats (Example 1); assay type: in vivo, rat; conditions: vs vehicle
# Experimental: The antibody used in this example consisted of the light and heavy polypeptide chains of SEQ ID NOs 132 and 134.
# Blood glucose (BG) was measured between 07:30 and 08:00 (just before the light off) am from the tip of the tail with glucometer and a blood collection (on EDTA) was performed just after to measure plasma insulin. The table below describes the conditions:
# Plasma samples were kept at −80° C. until insulin measurement (using ELISA method).
# Vehicle and Ab14 were administered by i.v. route 48 h before the T0 of clamp procedure (at 02:00 pm two days before the clamp).
# The rats were fasted 6 hours before the start of the clamp (at ˜8 h, just after the blood collection).
# [2] = test system: Normal rats; assay: Individual tissue glucose utilization rate (14C-2-DOG) during clamp in normal rats (Example 1); assay type: in vivo, rat; conditions: Ab14 100 mg/kg i.v., metformin 500 mg/kg p.o., vs vehicle
# Experimental: To determine the individual tissue glucose utilization rate, a bolus injection of 100 μCi per rat of deoxy-D-glucose 2-^14C (^14C-2-DOG) through the femoral vein was performed 60 min before the end of the D-[3-^3H]-glucose infusion. Plasma ^14C-2-DOG disappearance and glucose concentration were determined in 10 μL drops of blood sampled from the tip of the tail vein at 0, 5, 10, 15, 20, 25, 30, 45, and 60 minutes after the injection. At the end of the experiment, vastus lateralis (VL), extensor digitorum longus (EDL) and soleus muscles, epididymal and inguinal white adipose tissues, heart apex, and skin (as negative control) were dissected, flash frozen and kept at −80° C. A piece of each tissue was dissolved in 1M NaOH and then neutralized with 1M HCl. […]. D-2-^14C deoxyglucose was differentially precipitated by the use of a zinc hydroxide (0.3M) solution or a perchloric acid solution (6%). Both radioactivity contents were measured to evaluate the glucose uptake expressed as ng/mg/min.
# [3] = test system: HFD rats; assay: Fasting blood glucose, plasma insulin, C-peptide and HOMA-IR in HFD rats (Example 2); assay type: in vivo, rat; conditions: vs HFD vehicle
# Experimental: After 6 weeks of HFD rats were randomized to treatment groups according to their glucose intolerance (AUC calculation during an oral glucose tolerance test (OGTT)) and their HOMA-IR (insulin resistance index).
# Body weight and food consumption were measured 3 times per week until 10 days of treatment. HOMA-IR was measured on day 10 and 15. A 2-step clamp (5 mU/kg/min and then 15 mU/kg/min insulin) was performed on day 15 or 16. Glucose Turnover (GTO) was assessed using ^3H-glucose tracer infusion during the clamp procedure.
# Ab14 (10, 30, 100 mg/kg) and the vehicle were weekly administered via i.v. route (via the caudal vein, under isoflurane anaesthesia), in the morning, on day 1 and day 8 of treatment.
# Before the start of the treatment (the day of OGTT) and on day 10 of treatment, all rats were fasted from 08:00 am. At 01:30 pm, blood was collected from the from the tip tail (40 μL on EDTA). Blood glucose (using glucometers) and plasma insulin (ELISA method) were measured.
# Plasma insulin and C peptide levels were measured just before the infusion starts (˜T-30 min.), at the end of the steady state of step 1 (T2 h) and step 2 (T3.5 h). For that, blood collection was performed from the tip of the tail (˜100 μL, on EDTA).
# [4] = test system: Zucker diabetic fatty (ZDF) rat; assay: Fasting blood glucose, plasma insulin, C-peptide and HOMA-IR in ZDF rats (Example 3); assay type: in vivo; conditions: for increase of plasma C-peptide levels / increase of plasma insulin levels: vs vehicle ZDF; for increase of plasma C-peptide levels: NS; for increase of plasma insulin levels: ns
# Experimental: (§1) For the groups treated with AB14, the antibody was administered once weekly via the caudal vein (i.v., 5 mL/kg) on days 1, 8, 15, and 22 at two different doses 20 mg/kg/week (groups 3 and 7) or 60 mg/kg/week (groups 4 and 8). All other groups were treated once weekly with vehicle 1 (i.v., 5 mL/kg). The intravenous treatments were performed in the morning on day 1, 8, 15, and 22 while under isoflurane anaesthesia. The volume of administration was individually adapted according to the most recent body weight.
# (§2) All other groups were treated daily with vehicle 2 (p.o., 5 mL/kg) for 28 days. The most recent body weight was used to calculate the average volume of administration in each group.
# (§3) A fasting (6 hours on day 0 from 8:00 am to 02:00 pm, and overnight on day 12, 19 and 26 from ˜6:00 pm to ˜8:00 am) was performed before each blood collection. Blood was collected at ˜2:00 pm, from the tip of the tail, on day 0 (before screening, 150 μL, potassium EDTA), and at ˜8:00 am prior to dosing on days 12 (110 μL, potassium EDTA), 19 (150 μL, potassium EDTA) and 26, (110 μL, potassium EDTA).
# (§4) Fasting blood glucose (glucometers) was measured on days 0, 12, 19, and 26. Fasting plasma insulin, peptide-C (ELISA method), free fatty acids, triglycerides, total cholesterol (colorimetric method), and HDL-cholesterol (phosphotungstate precipitation, colorimetric method) were measured on day 0, and prior to dosing on days 12, 19, and day 26. Non HDL-cholesterol was calculated as total cholesterol—HDL-cholesterol. Fructosamine was measured on days 0, 19 and 28. HbA1c (DCA 2000) was measured on days 0 and 28.
# [5] = test system: Zucker diabetic fatty (ZDF) rat; assay: Plasma triglycerides, free fatty acids and cholesterol in ZDF rats (Example 3); assay type: in vivo; conditions: for increase of free fatty acids levels: vs vehicle ZDF, not significant
# Experimental: as §1, §2, §3, §4
# [6] = day 10, Ab14 10, 30, 100 mg/kg/week, metformin 200 mg/kg/day
# [7] = day 12, metformin 200 mg/kg/day
# [8] = day 19, metformin 200 mg/kg/day
# [9] = day 26, metformin 200 mg/kg/day
smiles,measurement,setting,value
"CN(C)C(=N)N=C(N)N [metformin, reference compound]",blood glucose in fed conditions,"[1]; fed, 42 h after Ab14 100 mg/kg i.v., 18 h after metformin 500 mg/kg p.o.",did not affect; also recorded: not affected
same,decrease of plasma insulin level in fed condition,"[1]; fed, 42 h after Ab14 100 mg/kg i.v., 18 h after metformin 500 mg/kg p.o., not significant",18%
same,"decrease of blood glucose in 6 hours fasting condition, just before clamp",[1]; metformin 500 mg/kg p.o.,17%
same,change of glucose utilization in the heart,[2],−39%
same,glucose utilization rate in white adipose tissues (deep and subcutaneous),[2],did not affect
same,increase of glucose utilization in mixed vastus lateralis muscle (VL),[2],49%
same,increase of glucose utilization in glycolytic extensor digitorum longus muscle (EDL),[2]; NS,19%
same,decrease of HOMA-IR,[3]; [6],36%
same,decrease of fasting plasma insulin,[3]; [6],37%
same,fasting blood glucose,[3]; [6],no effect
same,decrease of plasma C-peptide level,"[3]; day 15, metformin 200 mg/kg/day",13%
same,decrease of fasting plasma insulin,"[3]; day 15, metformin 200 mg/kg/day, ns",11%
same,increase of plasma C-peptide levels,[4]; [7],23%
same,increase of plasma insulin levels,[4]; [7],79%
same,increase of plasma C-peptide levels,[4]; [8],21%
same,increase of plasma insulin levels,[4]; [8],55%
same,"fasting blood glucose, effect","[4]; day 19 and 26, metformin 200 mg/kg",not observed
same,increase of plasma C-peptide levels,[4]; [9],9%
same,increase of plasma insulin levels,[4]; [9],48%
same,HOMA-IR,"[4]; days 12, 19 and 26, metformin 200 mg/kg/day alone or in combination with AB14, vs vehicle ZDF",increase of HOMA-IR
same,increase of plasma triglycerides levels,"[5]; day 12, metformin 200 mg/kg/day, vs vehicle",26%
same,increase of free fatty acids levels,[5]; [7],14%
same,increase of plasma triglycerides levels,"[5]; day 19, metformin 200 mg/kg/day, vs vehicle",40%
same,increase of free fatty acids levels,[5]; [8],25%
same,increase of plasma triglycerides levels,"[5]; day 26, metformin 200 mg/kg/day, vs vehicle",49%
same,increase of free fatty acids levels,[5]; [9],8%
same,non HDL-cholesterol levels,"[5]; metformin 200 mg/kg/day alone or in combination with AB14, vs vehicle",no effect
same,plasma HDL-cholesterol,"[5]; metformin 200 mg/kg/day alone, vs vehicle",no effect
